Results on 15 compounds are retold here after US20120071475A1, “UREA DERIVATIVES HAVING PI3K-INHIBITING ACTIVITY” (SHIONOGI & CO., LTD., priority 2009, published 2012).

In one data set the target is PI3Kγ (Homo sapiens, UniProt P48736). Briefly: PI3Kγ inhibitory activity (PI3-kinase HTRF assay, inhibition ratio). Particulars: compound at 10 μmol/L; for inhibition at 10 µM: 0.5 h, read-out: PI3Kg Inhibition Ratio % (10 μM). The format is biochemical. The procedure, abridged: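 Compound at 10 μmol/L preincubated 10 min with PI3Kγ and PIP2 substrate, then reacted with ATP for 30 minutes at room temperature; the compound, substrate and ATP figures as printed (40 μmol/L each) are solution concentrations. HTRF 665/620 nm ratio read after 18 hours. Inhibition ratio calculated against no-compound (100%) and no-enzyme (0%) controls.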

In the next data set the test system is AKT phosphorylation. Nature of the data set: AKT phosphorylation inhibitory activity in MCP-1 stimulated THP-1 cells (sandwich ELISA). The format is cell-based, Human. Conditions: compound at 1 μmol/L, MCP-1 stimulation; for inhibition at 1 µM: Homo sapiens, read-out: AKT phosphorylation inhibition ratio. The procedure, abridged:
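THP-1 cells (6.7×10^6/mL in HBSS) were preincubated with compound at 1 μmol/L for 5 min at 37 °C, then stimulated for 60 s with HBSS containing 1.2 μg/mL MCP-1 and lysed. Phospho-Akt Ser473/AKT1 sandwich ELISA was read at A450. % inhibition: no compound = 100% activity, no MCP-1 = 0%.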

The test system of data set [1] is CYP1A2, CYP2C9, CYP2C19, CYP2D6 and CYP3A4 (one value for the five species). Nature of the data set: CYP inhibition test, five CYP species together (5CYPs_IC50; pooled human liver microsome). Type of data set: in vitro ADME. Conditions: human, microsomes. The method in brief: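 Pooled human liver microsomes (0.2 mg/mL) in 50 mM Hepes were incubated with a substrate cocktail of 0.5 μM ethoxyresorufin, 100 μM tolbutamide, 50 μM S-mephenytoin, 5 μM dextromethorphan and 1 μM terfenadine plus NADPH for 15 min at 37 °C. Compound tested at 1–20 μM (4 points). Metabolites read by fluorescence or LC/MS/MS, and IC50 derived by logistic fit against a DMSO control.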
In general terms: Microsomes from liver hold many membrane-bound enzymes, among them those of drug oxidation.

Sequence of PI3Kγ (P48736 whole entry, species assumed): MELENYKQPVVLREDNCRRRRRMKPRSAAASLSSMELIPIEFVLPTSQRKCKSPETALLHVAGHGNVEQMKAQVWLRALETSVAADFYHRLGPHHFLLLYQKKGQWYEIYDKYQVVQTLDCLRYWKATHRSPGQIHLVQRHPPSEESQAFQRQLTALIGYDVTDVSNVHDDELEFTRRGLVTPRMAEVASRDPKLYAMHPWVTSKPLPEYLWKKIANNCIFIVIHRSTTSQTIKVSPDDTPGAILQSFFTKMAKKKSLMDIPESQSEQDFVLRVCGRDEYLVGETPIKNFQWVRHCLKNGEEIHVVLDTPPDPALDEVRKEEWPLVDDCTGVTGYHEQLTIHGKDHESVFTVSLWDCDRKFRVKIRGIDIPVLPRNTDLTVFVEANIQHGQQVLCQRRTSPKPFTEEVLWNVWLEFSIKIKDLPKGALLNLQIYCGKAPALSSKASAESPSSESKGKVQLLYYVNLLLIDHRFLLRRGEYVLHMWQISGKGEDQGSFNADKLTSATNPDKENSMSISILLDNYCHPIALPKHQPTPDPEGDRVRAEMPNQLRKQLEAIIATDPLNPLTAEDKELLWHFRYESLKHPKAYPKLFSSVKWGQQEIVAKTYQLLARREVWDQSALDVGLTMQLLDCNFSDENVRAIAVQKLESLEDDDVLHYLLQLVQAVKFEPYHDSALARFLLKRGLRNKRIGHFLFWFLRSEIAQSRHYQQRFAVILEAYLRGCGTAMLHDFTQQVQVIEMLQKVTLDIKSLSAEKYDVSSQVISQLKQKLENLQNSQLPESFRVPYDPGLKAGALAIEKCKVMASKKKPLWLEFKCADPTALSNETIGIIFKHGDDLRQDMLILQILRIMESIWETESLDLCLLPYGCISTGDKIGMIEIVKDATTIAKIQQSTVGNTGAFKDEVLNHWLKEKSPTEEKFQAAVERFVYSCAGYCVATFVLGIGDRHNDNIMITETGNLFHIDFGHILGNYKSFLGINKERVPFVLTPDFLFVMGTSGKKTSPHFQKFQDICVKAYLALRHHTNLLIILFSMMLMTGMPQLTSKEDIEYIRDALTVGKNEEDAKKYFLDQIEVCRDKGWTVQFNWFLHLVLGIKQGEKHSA

In the case of `Cc1nc(NC(=O)Nc2ccccc2C(=O)NC(C)C)sc1-c1ccc(S(C)(=O)=O)c(F)c1` [Compound I-127], the inhibition at 10 µM at PI3Kγ is at least 95%. In the data set with AKT phosphorylation, the inhibition at 1 µM was found to be 77.7%.
Broadly, the IC50 is the point on the concentration scale where inhibition reaches its midpoint. High values mean a need for much substance, low ones inhibition by little substance. As to `COc1nc(Cl)cc(N2CCc3nc(NC(=O)Nc4cnccc4C(=O)NC(C)C)sc3C2)n1` [Compound I-91], the inhibition at 10 µM at PI3Kγ is at least 95%. In data set [1], the IC50 at 15 min was at least 10 µM. Moreover, the inhibition at 1 µM in the data set with AKT phosphorylation was 94.7%.
The compound `COc1cncc(-c2ccc3nc(NC(=O)Nc4ccccc4OCCC(C)C)cn3n2)c1` [Compound I-114] gave an IC50 at 15 min in data set [1] of over 20 µM. Besides, in the data set with AKT phosphorylation, the inhibition at 1 µM was found to be 64.9%.
`COc1nc(Cl)cc(N2CCc3nc(NC(=O)Nc4ccccc4C(=O)NC4CCCOC4)sc3C2)n1` (stereo not shown) [Compound I-197]: at PI3Kγ, the inhibition at 10 µM was at least 95%. Moreover, the inhibition at 1 µM in the data set with AKT phosphorylation was found to be 90%.
As for `COc1cc(N2CCc3nc(NC(=O)Nc4ccccc4C(=O)NC4CCOCC4)sc3C2)nc(OC)n1` [Compound I-203], the inhibition at 10 µM at PI3Kγ is 91%. For the same compound, in data set [1], the IC50 at 15 min is over 20 µM. Moreover, in the data set on AKT phosphorylation, the inhibition at 1 µM is at least 95%.
On to `CC(C)NC(=O)c1ccccc1NC(=O)Nc1nc2c(s1)CN(c1cncc(C(F)(F)F)c1)CC2` [Compound I-131], for which the inhibition at 10 µM on PI3Kγ was determined as 78%. The same compound yielded an IC50 at 15 min in data set [1] of at least 10 µM. Moreover, the inhibition at 1 µM with AKT phosphorylation is 84%.
For `COc1cc(N2CCc3nc(NC(=O)Nc4ccccc4C(=O)NCCF)sc3C2)nc(OC)n1` [Compound I-88], in that order: at least 95%, at least 10 µM and 87.3%.
For `COc1cncc(-c2cc(NC(=O)Nc3ccccc3C(=O)NC(C)C)nn2C)c1` [Compound I-226], the inhibition at 10 µM on PI3Kγ stood at 93%. In data set [1], this compound yielded a concentration for half-maximal inhibition (IC50) at 15 min of at least 10 µM.
For `C[C@@H](CO)NC(=O)c1ccccc1NC(=O)Nc1nc2c(s1)CN(c1cncc(S(C)(=O)=O)c1)CC2` [Compound I-211], the inhibition at 10 µM at PI3Kγ was determined as 87%. Besides, the IC50 at 15 min in data set [1] was at least 10 µM. Further, the inhibition at 1 µM in the data set with AKT phosphorylation came out at 85%.
On to `COc1cc(N2CCc3nc(NC(=O)Nc4ccccc4C(=O)NC(C)C)sc3C2)nc(OC)n1` [Compound I-12], for which the inhibition at 10 µM at PI3Kγ came to 94%. Also, the inhibition at 1 µM in the data set on AKT phosphorylation is at least 95%.
For `COc1cc(N2CCc3nc(NC(=O)Nc4cn(C)nc4C(=O)NCC(F)(F)F)sc3C2)nc(OC)n1` [Compound I-148], the inhibition at 10 µM at PI3Kγ was 90%. In the data set with AKT phosphorylation, the inhibition at 1 µM is at least 95%.
In the case of `COc1cc(N2CCc3nc(NC(=O)Nc4ccccc4C(=O)NN4CCN(C)CC4)sc3C2)nc(OC)n1` [Compound I-195], the inhibition at 10 µM on PI3Kγ was at least 95%. The inhibition at 1 µM with AKT phosphorylation came out at 82%.
For the compound `COc1cc(N2CCc3nc(NC(=O)Nc4ccccc4C(=O)NC(C)C(O)C(F)(F)F)sc3C2)nc(OC)n1` (stereo not shown) [Compound I-139], on PI3Kγ, the “PI3Kg Inhibition Ratio % (10 μM)” value was “≧95%”. Further, in the data set with AKT phosphorylation, the “AKT phosphorylation inhibition ratio” value is on record as at least 95%.
As for `CC(C)NC(=O)c1ccccc1NC(=O)Nc1nc2c(s1)CN(c1cccc(S(C)(=O)=O)c1)CC2` [Compound I-198], the inhibition at 10 µM on PI3Kγ is at least 95%. This compound gave a concentration for half-maximal inhibition (IC50) at 15 min in data set [1] of over 20 µM. Besides, the inhibition at 1 µM in the data set with AKT phosphorylation was 94%.
On to `Cc1nc(NC(=O)Nc2ccccc2C(=O)NC(C)C)sc1-c1csc(S(=O)(=O)N(C)CCN(C)C)c1` [Compound I-191], for which the inhibition at 10 µM on PI3Kγ was 87%. Further, the IC50 at 15 min in data set [1] was at least 10 µM. Further, in the data set on AKT phosphorylation, the inhibition at 1 µM was found to be 93%.
